Data: article PMC8226474, “Design, Syntheses, and Bioevaluations of Some Novel N^2-Acryloylbenzohydrazides as Chemostimulants and Cytotoxic Agents” (Medicines, 2021)
Values joined by “and” are separate entries in the source; they are usually repeats but may differ in a detail not shown here. Equal values may be shown once. Read-outs that look alike come from different tables or passages of the source. One block for each compound: values may come before it.

How the values were obtained:
HCT 116 cells [1] = test: Cytotoxicity assay, HCT 116 colon cancer cells; format: cell-based, human; settings: for inhibition at 10 µM / inhibition at 100 µM / IC50: Homo sapiens, HCT-116, 48 h; for inhibition at 10 µM / inhibition at 100 µM: read-out: percentage inhibition of HCT 116 cells; for SI (selectivity index): IC50 CRL 1790 / IC50 HCT 116
From the text: (§1) Evaluation of the cytotoxic properties of the compounds presented in Table 1, Table 2, Table 3 and Table 4 was undertaken using the procedure outlined in [7]. In brief, the HCT 116 cells were obtained from the ATCC and cultured in McCoy’s 5A medium. The CRL 1790 cells were obtained from the ATCC and cultured in Minimum Essential Medium. The MCF-7 and MDA-MBA-231 cells were obtained from the Saskatchewan Cancer Agency and cultured in DMEM. In each assay the culture medium was supplemented with 10% fetal bovine serum and 1% penicillin–streptomycin antibiotics. The time of the bioassays was 48 h, unless indicated otherwise. All determinations were carried out in triplicate on three different occasions.

MCF-7 cells = test: Cytotoxicity assay, MCF-7 breast cancer cells; format: cell-based, human; settings: Homo sapiens, MCF7, 48 h, read-out: percentage inhibition of MCF-7 cells
From the text: as §1

MDA-MB-231 cells = test: Cytotoxicity assay, MDA-MB-231 breast cancer cells; format: cell-based, human; settings: Homo sapiens, MDA-MB-231, 48 h, read-out: percentage inhibition of MDA-MB-231 cells
From the text: as §1

CRL 1790 cells = test: Cytotoxicity assay, non-malignant CRL 1790 colon cells; format: cell-based; settings: Homo sapiens, 48 h
From the text: as §1

HCT 116 cells [2] = test: Chemosensitization of HCT 116 cells: 1m for 24 h, then 2a or 5-FU for a further 24 h; format: cell-based, human; settings: for Reduction in Live Cells % 1m (48 h): DMSO figure minus compound figure
From the text: as §1
The next phase of the investigation was to determine whether a representative compound in series 1 chemosensitizes HCT 116 cells to a 3,5-bis(benzylidene)-4-piperidone 2a. […] The colon cancer cells were incubated for 24 h with 1m, and then 2a was added and the incubation was continued for a further 24 h. Different concentrations of both 1m and 2a were employed, and the results are presented as entries 1–12 in Table 3. In addition, the effects of each of 1m, 2a, and 5-FU on HCT 116 cells (which are necessary for the evaluation of whether chemosensitivity occurs) were recorded, and are presented as entries 13–20 in Table 3.
The concentration of 1m in combination 4 is 5 µM, which after 48 h causes a percentage reduction of live cells to 86% (DMSO figure after 48 h, line 20) minus 75% (48 h, line 13), or 11%.
The concentration of 2a in combination 4 is 0.2 µM. This combination leads to a reduction of the percentage of live cells to 91% (DMSO figure after 24 h, line 20) minus 69%, or 22%.
The percentage reduction in live cells caused by a combination of 1m (5 µM) and 2a (0.2 µM), in the absence of chemosensitization, is 11% plus 22%, or 33%.
However, the percentage reduction in cells as indicated on line 4 is 86% (DMSO figure after 48 h) minus 12% (line 4, 48 h figure), or 74%.

HCT 116 cells [3] = test: Mitochondrial membrane potential of HCT 116 cells (TMRE dye); format: cell-based, human; settings: IC50 concentration towards HCT 116, 48 h, Figure 4
From the text: The method of Crowley et al. was employed in order to ascertain the effects of 1m, 7a, e, g, and 5-FU on the mitochondrial membrane potential of HCT 116 cells.
The decision was made to experiment with another method for determining the effect of compounds on the MMP. In this assay, the dye used was tetramethylrhodamine ethyl ester (TMRE), which can be found in the mitochondria of healthy cells. However, in apoptotic cells, the dye is released into the cytosol, leading to a decrease in the fluorescence signal.

HCT 116 cells [4] = test: ROS levels in HCT 116 cells (DCF-DA dye); format: cell-based, human; settings: IC50 concentration towards HCT 116; DCF-DA fluorescence; Figure 5
Experimental: In this assay, the dye 2,7-dichlorofluorescein diacetate (DCF-DA) was used, and the effects of 1m, 7a, e, g, and 5-FU on the ROS levels in HCT 116 cells were determined by the method of [11].
The evaluation of 1m, […], e, and g for their capacity to increase the concentration of ROS in HCT 116 cells used 2′,7′-dichlorofluorescein diacetate. This dye is deacetylated in cells, and is converted into a non-fluorescent compound that reacts with ROS to form 2′,7′-dichlorofluorescein, which is fluorescent.

Ramos cells = test: Cytotoxicity (CC50), Ramos cells; format: cell-based, human
Experimental: (§2) In brief, the compounds were incubated for 24 h with the neoplasms, using DMEM and RPMI media. Three independent experiments were carried out.

NALM-60 cells = test: Cytotoxicity (CC50), NALM-60 cells; format: cell-based, human
Experimental: as §2

CEM cells = test: Cytotoxicity (CC50), CEM cells; format: cell-based, human
Experimental: as §2

HL-60 cells = test: Cytotoxicity (CC50), HL-60 cells; format: cell-based, human
Experimental: as §2

JURKAT cells = test: Cytotoxicity (CC50), Jurkat cells; format: cell-based, human
Experimental: as §2

RAJI cells = test: Cytotoxicity (CC50), Raji cells; format: cell-based, human
Experimental: as §2

[5] = Cytotoxicity (CC50), non-malignant Hs27 foreskin cells; format: cell-based; settings: human, 24 h incubation
Experimental: as §2

[6] = Cytotoxicity (CC50), non-malignant MCF-10A breast cells; format: cell-based; settings: human, MCF-10A cells (non-malignant breast cells); 24 h incubation; read-out: Non-Malignant Cells CC50, MCF10A
Experimental: as §2

[7] = system: Ramos, NALM-60, CEM, HL-60, JURKAT, RAJI cells; test: Cytotoxicity (CC50), average over six leukemia/lymphoma cell lines; format: cell-based, human
Experimental: as §2

[8] = Cytotoxicity (CC50), average over non-malignant cells; format: cell-based; settings: human, Hs27 and MCF10A cells (non-malignant), average of both
Experimental: as §2

melting point: 163 to 165 °C
SMILES: C=CC(=O)NNC(=O)c1ccc(OC)c(OC)c1 [1m, N^2-Acryloyl-3,4-dimethoxylbenzohydrazide]
inhibition at 10 µM (HCT 116 cells [1]): 46.9 ± 2.55%
inhibition at 100 µM (HCT 116 cells [1]): 97.9 ± 1.92%
IC50 (HCT 116 cells [1]; Table 2, read-out: Neoplastic Cells IC50, HCT 116): 15300 ± 420 nM
SI (selectivity index) (HCT 116 cells [1]; Table 2): >6.54
inhibition at 10 µM (MCF-7 cells): -16.1 ± 3.51%
inhibition at 100 µM (MCF-7 cells): > 100%
inhibition at 10 µM (MDA-MB-231 cells): -15.9 ± 1.96%
inhibition at 100 µM (MDA-MB-231 cells): 50.5 ± 1.42%
IC50 (CRL 1790 cells; Table 2, read-out: Non-Malignant CRL 1790 Cells IC50): > 100000 nM
Reduction in Live Cells % 1m (48 h) (HCT 116 cells [2]; 1m 5 µM alone, 48 h): 11%
Reduction in Live Cells % 1m (48 h) (HCT 116 cells [2]; 1m 10 µM alone, 48 h): 29%
Reduction in Live Cells % 1m (48 h) (HCT 116 cells [2]; 1m 15 µM alone, 48 h): 54%
chemosensitization of HCT 116 cells (HCT 116 cells [2]; 1m 24 h before the cytotoxin, certain concentrations): sensitizes HCT 116 cells to the potent cytotoxin 2a, and also to the established anticancer drug 5-FU
Live Cells % (HCT 116 cells [2]; entry 13: 1m 5 µM alone, 24 h): 88 ± 2.82%
Live Cells % (HCT 116 cells [2]; entry 13: 1m 5 µM alone, 48 h): 75% and 75 ± 4.89%
Live Cells % (HCT 116 cells [2]; entry 14: 1m 10 µM alone, 24 h): 67 ± 1.67%
Live Cells % (HCT 116 cells [2]; entry 14: 1m 10 µM alone, 48 h): 57 ± 1.76%
Live Cells % (HCT 116 cells [2]; entry 15: 1m 15 µM alone, 24 h): 61 ± 3.49%
Live Cells % (HCT 116 cells [2]; entry 15: 1m 15 µM alone, 48 h): 32 ± 0.94%
effect on mitochondrial membrane potential of HCT 116 cells (HCT 116 cells [3]): only 7e reduces the electrochemical potential of the mitochondria
effect on ROS levels in HCT 116 cells (HCT 116 cells [4]): increase the fluorescence intensity

melting point: 190 to 192 °C
SMILES: COc1ccc(C(=O)NNC(=O)CCN2CC(=Cc3ccc(C)cc3)C(=O)C(=Cc3ccc(C)cc3)C2)cc1OC [7g, 3,5-Bis(4-methylbenzylidene)-1-[3-(3,4-dimethoxyphenylcarbonylaminoamino)-3-oxo-1-propyl]-4-piperidone]
IC50 (HCT 116 cells [1]; Table 4, read-out: IC50 HCT 116): 1940 ± 180 nM
SI (selectivity index) (HCT 116 cells [1]; Table 4): 4.76
IC50 (CRL 1790 cells; Table 4, read-out: IC50 CRL 1790): 9240 ± 520 nM
effect on mitochondrial membrane potential of HCT 116 cells (HCT 116 cells [3]): only 7e reduces the electrochemical potential of the mitochondria
effect on ROS levels in HCT 116 cells (HCT 116 cells [4]): increase the fluorescence intensity

melting point: 233 to 235 °C
SMILES: C=CC(=O)NNC(=O)c1ccc(Cl)cc1 [1d, N^2-Acryloyl-4-chlorobenzohydrazide]
inhibition at 10 µM (HCT 116 cells [1]): -5.05 ± 2.36%
inhibition at 100 µM (HCT 116 cells [1]): 82.3 ± 0.8%
inhibition at 10 µM (MCF-7 cells): 3.59 ± 2.08%
inhibition at 100 µM (MCF-7 cells): 55.9 ± 2.82%
inhibition at 10 µM (MDA-MB-231 cells): -12.3 ± 4.05%
inhibition at 100 µM (MDA-MB-231 cells): 49.1 ± 2.04%
CC50 (Ramos cells; Homo sapiens, Ramos, 24 h incubation): 150 ± 20 nM
SI Ramos (Ramos cells; average CC50 of non-malignant cells / CC50 Ramos): 57.9
CC50 (NALM-60 cells; Homo sapiens, 24 h incubation): 2860 ± 550 nM
SI NALM-60 (NALM-60 cells; average CC50 of non-malignant cells / CC50 NALM-60): 3.04
CC50 (CEM cells; Homo sapiens, CCRF-CEM, 24 h incubation): 860 ± 70 nM
SI CEM (CEM cells; average CC50 of non-malignant cells / CC50 CEM): 10.1
CC50 (HL-60 cells; Homo sapiens, HL-60, 24 h incubation): 2900 ± 760 nM
SI HL-60 (HL-60 cells; average CC50 of non-malignant cells / CC50 HL-60): 3.00
CC50 (JURKAT cells; Homo sapiens, Jurkat, 24 h incubation): 1070 ± 90 nM
SI JURKAT (JURKAT cells; average CC50 of non-malignant cells / CC50 JURKAT): 8.12
CC50 (RAJI cells; Homo sapiens, Raji, 24 h incubation): 2710 ± 90 nM
SI RAJI (RAJI cells; average CC50 of non-malignant cells / CC50 RAJI): 3.24
CC50 at 24 h [5]: 10500 ± 50 nM
CC50 at 24 h [6]: 6870 ± 480 nM
Avg SI, neoplastic cells [7]: 14.2
CC50 ([7]; Homo sapiens, average over six neoplastic cell lines): 1760 nM
CC50 at 24 h [8]: 8690 nM
